{"source": "patent US12673039B2", "about": "“Methods of inducing autophagy using coumarin derivatives and related compounds” (Buck Institute for Research on Aging, priority 2019, dated 2026)", "key": {"[1]": {"test_system": "parkin mutant PD mouse model", "assay": "Age-related parkin mutant PD mouse model, C1 in the feed", "format": "in vivo", "conditions": "oral in the feed", "source_text": "Relative TFEB expression as assessed by qPCR from mRNA extracted from the SNpc of parkin mutant versus WT littermates administered C1 in the feed versus normal chow; UA was included as a positive control.\nStereological DAergic SNpc counts and motor behavior as assessed by rearing frequency in parkin mutant versus WT littermates administered C1 in the feed versus normal chow."}, "DAF-12": {"target": "T1, DAF-12 (Caenorhabditis elegans, UniProt G5EFF5)", "T1 construct": "expressed in transfected cells; host or cells: HEK293T", "T1 sequence (G5EFF5 516-753 limits assumed)": "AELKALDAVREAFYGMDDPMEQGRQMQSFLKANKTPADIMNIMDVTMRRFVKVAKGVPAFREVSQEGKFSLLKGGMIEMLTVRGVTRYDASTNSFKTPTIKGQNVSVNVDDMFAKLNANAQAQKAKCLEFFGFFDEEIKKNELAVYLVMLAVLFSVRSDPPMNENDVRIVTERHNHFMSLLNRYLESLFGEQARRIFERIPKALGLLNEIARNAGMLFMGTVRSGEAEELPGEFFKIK", "assay": "Mammalian one-hybrid DAF-12 activity assay (HEK293T)", "format": "cell-based, human", "method": "FIG. 10 illustrates that coumarin 106 (“C1”, “AIC106”) inhibits induction of the worm FXR homologue DAF-12. The ability of C1 (10 μM) to inhibit activation of the FXR worm homologue DAF-12 by its ligand dafachronic acid (Df acid); values are fold activity induction versus untreated controls; ****p<0.01 versus GW; **p<0.05 versus GW.\nFIG. 22, panels A-H: AIC106-induced HLH-30 expression is mediated by the nuclear hormone receptor DAF-12. Panel A) The upstream promoter region (2 kB) of hlh-30 was analyzed by JASPAR CORE database to determine DAF-12 binding sites (1: SEQ ID NO:1, 2: 1: SEQ ID NO:2, 3: SEQ ID NO:3, 4: SEQ ID NO:4, 5: SEQ ID NO:5, 6: SEQ ID NO:6, 7: SEQ ID NO:7, 8: SEQ ID NO:8, 9: SEQ ID NO:9, 10: SEQ ID NO:10, 11: SEQ ID NO:11, 12: SEQ ID NO:12). Panel B) Relative fold change in mRNA of hlh-30 compared to DMSO-control was quantified using qRT-PCR in young adult wild-type N2 and daf-12(rh61rh411) worms post-24 hours treatment with AIC106. [N=3 independent experiments (mean±SD). **p<0.01, by one-way ANOVA with Sidak's multiple comparisons test]. Panel C) Effects of AIC106 on DAF-12 activity was determined in a mammalian one-hybrid assay by quantifying changes in the luciferase activity of DAF-12 ligand (dafachronic acid, DA) induced treatment. [N=3 independent experiments (mean±SD). *p<0.05 **p<0.01 and ***p<0.001, by one-way ANOVA with Tukey's multiple comparisons test]. Panel D) Schematic diagram showing that addition of AIC106 or inhibition of DAF-12 ligand synthesis, which leads to un-liganded DAF-12 may result in enhanced HLH-30 expression. Panel E) Dafadine-A (DFA), a specific inhibitor of key enzyme required for synthesis of DAF-12 ligand induces HLH-30 expression. Immunoblot for GFP was performed on protein lysate of HLH-30; GFP (MAH235) young adult worms treated with DFA or DMSO-control for 24 hours. Panel F) Protection against mitochondrial toxin (FCCP) was determined by quantifying survival of young adult worms treated 24 hours with DFA or DMSO-control. [N=3 independent experiments (mean±SD). **p<0.01, by two-way ANOVA with Tukey's multiple comparisons test]. Panel G) Motor function in day-7 NL5901 worms were quantified by scoring number of thrashes for an individual worm over the period of 30 seconds (dots) in DFA and DMSO-control treatment. [N=3 independent experiments (mean±SD). **p<0.01, by unpaired t-test] […] [N=3 independent experiments (mean±SD). *p<0.05, by one-way ANOVA with Tukey's multiple comparisons test].\nFIG. 29, panels A-C: AIC106 modulates DAF-12 activity. […] Luciferase activity was measured to quantify DAF-12 activity. Panel C) Dose dependent increase in DAF-12 activity after treatment with known DAF-12 ligand, dafachronic acid (DA) was determined by quantifying luciferase activity. […]"}}, "data": [{"smiles": "O=c1oc2c3c4c(cc2c2c1CCC2)CCCN4CCC3", "note": "[C1, 2,3,6,7,10,11-Hexahydro-1H,5H-cyclopenta(3,4)(1)benzopyrano(6,7,8-ij)quinolizin-12(9H)-one]", "values": [{"measurement": "motor deficits (rearing frequency)", "setting": "[1]; 6 month period (FIG. 16)", "value": "prevents both neuronal cell loss and motor deficits"}, {"measurement": "neuronal cell loss (DAergic SNpc counts)", "setting": "[1]; 6 month period (FIG. 16)", "value": "prevents both neuronal cell loss and motor deficits"}, {"measurement": "TFEB expression in SNpc", "setting": "[1]; 6 month period from 14-16 mo. (FIG. 15)", "value": "TFEB target engagement"}, {"measurement": "activation of DAF-12 elicited by dafachronic acid", "setting": "DAF-12; C1 10 μM (FIG. 10)", "value": "inhibit activation of the FXR homologue DAF-12"}, {"measurement": "DAF-12 activity (luciferase)", "setting": "DAF-12; compound alone", "value": "did not increase DAF-12 activity"}, {"measurement": "DA-induced DAF-12 activity", "setting": "DAF-12; in combination with dafachronic acid", "value": "dose-dependent suppression of DA-induced DAF-12 activity"}]}]}
